The text below walks through data of ChEMBL document CHEMBL1955797, “Discovery of vinylcycloalkyl-substituted benzimidazole TRPM8 antagonists effective in the treatment of cold allodynia” (Bioorg Med Chem Lett, 2012).

Data set [1] in a line: Metabolic stability in rat liver microsomes assessed as compound remaining after 10 mins. It is filed as ADME, Microsome. Particulars: read-out: Stability.
Data set [2] in a line: Metabolic stability in human liver microsomes assessed as compound remaining after 10 mins. It is filed as ADME, Microsome. The note with it: read-out: Stability.
In data set [3] the target is Transient receptor potential M8 protein (Canis lupus familiaris, UniProt Q1A7N1). Put plainly: Antagonist activity at dog TRPM8 expressed in HEK293 cells assessed as inhibition of icilin-induced calcium flux by FLIPR assay. It is filed as functional, cell-based. In general terms: Calcium assays in cells follow changes in intracellular calcium, usually with a dye or a luminescent sensor.
Chain of Transient receptor potential M8 protein (Q1A7N1 whole entry): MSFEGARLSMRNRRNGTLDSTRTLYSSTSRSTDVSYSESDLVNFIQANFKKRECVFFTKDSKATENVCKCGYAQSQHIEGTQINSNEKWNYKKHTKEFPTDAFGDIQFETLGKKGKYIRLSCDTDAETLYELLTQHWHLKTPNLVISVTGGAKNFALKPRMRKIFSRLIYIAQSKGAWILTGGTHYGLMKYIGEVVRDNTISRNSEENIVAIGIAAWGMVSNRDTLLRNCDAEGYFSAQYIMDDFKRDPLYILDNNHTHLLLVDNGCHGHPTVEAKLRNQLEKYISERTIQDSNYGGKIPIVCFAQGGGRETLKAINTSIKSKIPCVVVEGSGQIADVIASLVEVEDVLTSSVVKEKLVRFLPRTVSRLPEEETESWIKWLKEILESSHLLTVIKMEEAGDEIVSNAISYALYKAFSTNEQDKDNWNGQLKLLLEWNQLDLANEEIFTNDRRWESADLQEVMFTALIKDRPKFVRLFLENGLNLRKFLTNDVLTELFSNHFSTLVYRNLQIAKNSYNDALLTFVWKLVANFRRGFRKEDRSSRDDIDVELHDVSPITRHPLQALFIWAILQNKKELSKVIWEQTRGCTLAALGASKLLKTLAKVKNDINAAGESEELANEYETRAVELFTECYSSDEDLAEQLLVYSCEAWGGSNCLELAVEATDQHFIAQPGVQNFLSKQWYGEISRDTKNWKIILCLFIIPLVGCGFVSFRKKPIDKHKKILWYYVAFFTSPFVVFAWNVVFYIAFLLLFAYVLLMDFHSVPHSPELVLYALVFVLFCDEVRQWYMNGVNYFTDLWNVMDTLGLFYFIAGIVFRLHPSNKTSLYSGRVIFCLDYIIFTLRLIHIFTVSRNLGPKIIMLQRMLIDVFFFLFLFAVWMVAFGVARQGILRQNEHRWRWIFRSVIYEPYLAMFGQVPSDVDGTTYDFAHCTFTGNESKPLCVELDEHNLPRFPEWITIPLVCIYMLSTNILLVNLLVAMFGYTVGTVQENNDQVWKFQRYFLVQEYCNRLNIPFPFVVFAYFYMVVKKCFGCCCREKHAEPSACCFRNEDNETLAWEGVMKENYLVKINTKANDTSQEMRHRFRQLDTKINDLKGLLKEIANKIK

The target of data set [4] is Transient receptor potential M8 protein (Canis lupus familiaris) (UniProt Q1A7N1). In words: Antagonist activity at dog TRPM8 expressed in human HEK293 cells assessed as inhibition of icilin-induced calcium flux at 0.2 uM by FLIPR assay. Type of data set: functional, cell-based.
Chain of Transient receptor potential M8 protein (Canis lupus familiaris) (Q1A7N1 1-1104): as the sequence (Q1A7N1 whole entry) above
Data set [5] is described as follows: Metabolic stability in dog liver microsomes assessed as compound remaining after 10 mins. The note with it: read-out: Stability. Type of data set: ADME, Canis lupus familiaris, Microsome. In general terms: Liver microsomes are a subcellular fraction often used to study metabolism.
Data set [6] deals with Rattus norvegicus. In words: Antiallodynic activity against chronic constriction injury cold allodynia in rat assessed as inhibition of cold hypersensitivity at 10 mg/kg, po measured after 4 hrs post dosing. Details: dose 10 mg/kg. Type of data set: functional, organism-based.
For data set [7], the system named is Rattus norvegicus. Put plainly: Antiallodynic activity against chronic constriction injury cold allodynia in rat assessed as inhibition of cold hypersensitivity at 10 mg/kg, po measured after 2 hrs post dosing. It is filed as functional, organism-based. Details: dose 10 mg/kg.
Data set [8] concerns Rattus norvegicus. Put plainly: Antiallodynic activity against chronic constriction injury cold allodynia in rat assessed as inhibition of cold hypersensitivity at 30 mg/kg, po measured after 2 to 3 hrs post dosing. It is filed as functional.
For data set [9], the system named is Rattus norvegicus. Put plainly: Antiallodynic activity against chronic constriction injury cold allodynia in rat assessed as inhibition of cold hypersensitivity at 10 mg/kg, po measured after 2 to 3 hrs post dosing. Type of data set: functional.
Data set [10] concerns Rattus norvegicus. In words: Inhibition of icilin-induced wet dog shakes behavior in po dosed rat administered 60 mins prior to icilin challenge. Type of data set: functional.
A short description of data set [11]: Tmax in rat at 10 mg/kg. It is filed as ADME, organism-based. On the set-up: dose 10 mg/kg. The note with it: in vivo.
The nature of data set [12]: Volume of distribution at steady state in rat at 10 mg/kg. The note with it: in vivo, read-out: Vdss. It is filed as ADME, organism-based. Details: dose 10 mg/kg.
Data set [13] in a line: Cmax in rat at 10 mg/kg. Type of data set: ADME, organism-based. Details: dose 10 mg/kg. The note with it: in vivo.
A short description of data set [14]: Half life in rat at 10 mg/kg. Particulars: in vivo. Type of data set: ADME, organism-based. Details: dose 10 mg/kg.
The nature of data set [15]: Clearance in rat at 10 mg/kg. It is filed as ADME, organism-based. Details: dose 10 mg/kg. The note with it: in vivo.
Data set [16] in a line: Oral bioavailability in rat at 10 mg/kg. Type of data set: ADME, organism-based. Particulars: in vivo.
In the next data set the target is CYP2C9 (Homo sapiens, UniProt P11712). In words: Inhibition of CYP2C9 in human liver microsomes at 3.3 uM. Type of data set: ADME, Microsome.
Chain of CYP2C9 (P11712 whole entry): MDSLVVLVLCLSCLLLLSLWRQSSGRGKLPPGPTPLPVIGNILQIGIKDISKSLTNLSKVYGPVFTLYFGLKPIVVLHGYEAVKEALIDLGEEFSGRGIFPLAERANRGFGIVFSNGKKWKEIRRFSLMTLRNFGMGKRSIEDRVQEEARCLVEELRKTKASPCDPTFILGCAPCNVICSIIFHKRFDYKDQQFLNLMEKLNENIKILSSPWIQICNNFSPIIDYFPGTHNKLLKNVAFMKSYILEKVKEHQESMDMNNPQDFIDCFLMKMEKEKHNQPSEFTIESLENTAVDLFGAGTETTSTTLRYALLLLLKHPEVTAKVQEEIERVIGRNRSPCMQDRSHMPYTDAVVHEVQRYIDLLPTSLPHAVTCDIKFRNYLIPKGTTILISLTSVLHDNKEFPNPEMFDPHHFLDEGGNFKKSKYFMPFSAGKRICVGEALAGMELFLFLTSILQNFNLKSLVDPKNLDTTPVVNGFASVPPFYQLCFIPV
Data set [17] has as its target T1, Cytochrome P450 2C19 (Homo sapiens, UniProt P33261). Put plainly: Inhibition of CYP2C19 in human liver microsomes. Type of data set: ADME, Microsome.
For data set [18], the target named is T2, Cytochrome P450 3A4 (Homo sapiens, UniProt P08684). In words: Inhibition of CYP3A4 in human liver microsomes. It is filed as ADME, Microsome.
T2 sequence (P08684 whole entry): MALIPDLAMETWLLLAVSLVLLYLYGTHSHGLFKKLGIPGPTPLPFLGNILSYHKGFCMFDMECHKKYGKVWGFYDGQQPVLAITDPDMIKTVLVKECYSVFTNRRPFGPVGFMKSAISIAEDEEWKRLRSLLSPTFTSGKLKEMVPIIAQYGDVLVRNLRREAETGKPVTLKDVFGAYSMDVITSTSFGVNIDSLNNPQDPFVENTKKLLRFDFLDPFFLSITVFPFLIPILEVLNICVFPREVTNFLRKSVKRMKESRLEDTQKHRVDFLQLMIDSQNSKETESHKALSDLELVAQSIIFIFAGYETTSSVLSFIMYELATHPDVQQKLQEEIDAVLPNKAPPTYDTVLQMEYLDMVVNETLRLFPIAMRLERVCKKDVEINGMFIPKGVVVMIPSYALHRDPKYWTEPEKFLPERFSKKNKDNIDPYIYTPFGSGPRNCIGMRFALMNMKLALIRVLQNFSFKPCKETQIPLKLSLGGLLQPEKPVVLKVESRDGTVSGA
The target in another data set is T3, Cytochrome P450 1A2 (Homo sapiens, UniProt P05177).
T3 sequence (P05177 whole entry): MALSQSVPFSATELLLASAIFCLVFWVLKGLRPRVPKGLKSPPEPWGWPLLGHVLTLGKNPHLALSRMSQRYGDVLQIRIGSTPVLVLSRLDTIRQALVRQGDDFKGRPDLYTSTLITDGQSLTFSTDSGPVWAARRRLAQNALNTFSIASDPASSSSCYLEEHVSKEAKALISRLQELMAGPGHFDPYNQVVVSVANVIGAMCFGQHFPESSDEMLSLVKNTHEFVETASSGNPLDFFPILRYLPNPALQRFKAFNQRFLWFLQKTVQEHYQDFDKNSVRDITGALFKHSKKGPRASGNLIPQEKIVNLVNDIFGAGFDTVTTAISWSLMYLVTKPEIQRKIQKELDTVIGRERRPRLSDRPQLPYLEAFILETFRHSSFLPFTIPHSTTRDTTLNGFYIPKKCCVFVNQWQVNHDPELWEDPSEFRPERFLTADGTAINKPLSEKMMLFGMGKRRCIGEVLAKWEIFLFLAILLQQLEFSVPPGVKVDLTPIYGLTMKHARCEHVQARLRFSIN
In words: Inhibition of recombinant CYP1A2. Type of data set: ADME.

For the next data set, the target named is Cytochrome P450 2D6 (Homo sapiens, UniProt P10635). Put plainly: Inhibition of recombinant CYP2D6. Type of data set: ADME.
Chain of Cytochrome P450 2D6 (P10635 whole entry): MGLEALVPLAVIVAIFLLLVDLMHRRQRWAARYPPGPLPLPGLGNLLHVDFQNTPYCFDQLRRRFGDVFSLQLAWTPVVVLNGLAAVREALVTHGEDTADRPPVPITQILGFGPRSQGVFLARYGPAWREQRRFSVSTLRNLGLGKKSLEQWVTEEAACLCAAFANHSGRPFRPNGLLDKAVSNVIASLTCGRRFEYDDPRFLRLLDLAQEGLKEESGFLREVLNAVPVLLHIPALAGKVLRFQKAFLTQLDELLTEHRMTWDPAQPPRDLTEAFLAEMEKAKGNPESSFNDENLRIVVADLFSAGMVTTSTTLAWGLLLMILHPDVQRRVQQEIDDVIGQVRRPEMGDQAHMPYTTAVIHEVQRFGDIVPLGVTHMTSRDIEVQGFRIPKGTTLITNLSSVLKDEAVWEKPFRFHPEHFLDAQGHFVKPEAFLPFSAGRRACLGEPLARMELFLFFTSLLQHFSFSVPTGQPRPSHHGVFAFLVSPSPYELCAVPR
In data set [19] the target is T1, Cytochrome P450 2C19. Put plainly: Inhibition of recombinant CYP2C19. Type of data set: ADME.
The target of the next data set is Cytochrome P450 2C9 (Homo sapiens, UniProt P11712). In words: Inhibition of recombinant CYP2C9. Type of data set: ADME.
Chain of Cytochrome P450 2C9 (P11712 whole entry): as the sequence (P11712 whole entry) above
Data set [20] has as its target T2, Cytochrome P450 3A4. In words: Inhibition of recombinant CYP3A4. Type of data set: ADME.
Data set [21] has as its target Transient receptor potential cation channel subfamily M member 8 (Rattus norvegicus, UniProt Q8R455). Put plainly: Antagonist activity at rat TRPM8 by calcium flux assay. It is filed as functional.
The target in data set [22] is Transient receptor potential cation channel subfamily M member 8 (Homo sapiens, UniProt Q7Z2W7). In words: Antagonist activity at human TRPM8 by calcium flux assay. Type of data set: functional.
Chain of Transient receptor potential cation channel subfamily M member 8 (Homo sapiens, UniProt Q7Z2W7) (Q7Z2W7 whole entry): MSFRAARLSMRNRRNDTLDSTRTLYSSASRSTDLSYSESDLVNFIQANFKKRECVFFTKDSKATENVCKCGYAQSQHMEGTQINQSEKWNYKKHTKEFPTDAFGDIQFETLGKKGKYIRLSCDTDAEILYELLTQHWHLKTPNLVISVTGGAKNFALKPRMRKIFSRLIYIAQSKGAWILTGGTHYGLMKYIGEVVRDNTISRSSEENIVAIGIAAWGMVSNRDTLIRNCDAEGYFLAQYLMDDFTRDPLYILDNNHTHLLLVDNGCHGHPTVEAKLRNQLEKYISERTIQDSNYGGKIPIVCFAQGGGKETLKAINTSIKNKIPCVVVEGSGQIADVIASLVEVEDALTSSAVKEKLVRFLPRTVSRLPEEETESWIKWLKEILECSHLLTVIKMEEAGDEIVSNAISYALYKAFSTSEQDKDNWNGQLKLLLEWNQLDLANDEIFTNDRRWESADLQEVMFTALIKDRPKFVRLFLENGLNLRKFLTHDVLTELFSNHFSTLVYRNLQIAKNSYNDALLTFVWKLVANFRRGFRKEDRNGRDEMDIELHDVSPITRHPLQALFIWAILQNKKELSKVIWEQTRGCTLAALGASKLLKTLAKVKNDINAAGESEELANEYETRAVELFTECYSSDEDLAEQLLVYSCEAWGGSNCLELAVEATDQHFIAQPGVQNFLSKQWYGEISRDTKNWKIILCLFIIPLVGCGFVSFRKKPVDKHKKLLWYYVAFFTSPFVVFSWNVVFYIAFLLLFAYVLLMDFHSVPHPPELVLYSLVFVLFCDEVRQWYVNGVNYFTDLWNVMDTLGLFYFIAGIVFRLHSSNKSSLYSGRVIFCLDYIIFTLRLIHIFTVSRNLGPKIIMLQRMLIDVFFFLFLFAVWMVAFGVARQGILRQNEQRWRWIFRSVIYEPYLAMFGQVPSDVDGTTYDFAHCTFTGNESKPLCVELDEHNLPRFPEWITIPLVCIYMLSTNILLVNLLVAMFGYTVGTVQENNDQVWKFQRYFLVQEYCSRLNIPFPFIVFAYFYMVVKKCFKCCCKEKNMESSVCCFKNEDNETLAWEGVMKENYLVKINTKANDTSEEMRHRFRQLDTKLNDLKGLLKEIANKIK
In a further data set the test system is Liver microsomes. Put plainly: Metabolic stability in human liver microsomes assessed as CYP3A4-mediated glutathione adduct formation by glutathione conjugation assay. Type of data set: ADME, Microsome.

Active and inactive are the calls of the source. No cut-off for these calls is given here.

T1 sequence (P33261 whole entry): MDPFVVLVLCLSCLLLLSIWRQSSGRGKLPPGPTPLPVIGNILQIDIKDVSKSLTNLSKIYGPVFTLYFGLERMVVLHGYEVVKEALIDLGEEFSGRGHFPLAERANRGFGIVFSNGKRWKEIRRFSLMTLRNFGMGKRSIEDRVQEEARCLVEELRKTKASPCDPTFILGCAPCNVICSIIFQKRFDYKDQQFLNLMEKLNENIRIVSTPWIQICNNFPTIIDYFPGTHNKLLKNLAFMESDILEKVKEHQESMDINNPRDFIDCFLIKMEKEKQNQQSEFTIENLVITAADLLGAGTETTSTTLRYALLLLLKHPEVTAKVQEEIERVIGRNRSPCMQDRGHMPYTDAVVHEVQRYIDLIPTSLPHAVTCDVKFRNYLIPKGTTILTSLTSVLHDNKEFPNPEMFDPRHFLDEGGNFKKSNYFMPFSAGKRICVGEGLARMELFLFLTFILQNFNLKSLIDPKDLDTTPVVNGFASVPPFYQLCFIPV

`FC(F)(F)Oc1ccccc1-c1ccc2[nH]c(/C=C/C3CCCC3)nc2c1`: the remaining at 10 min in data set [1] amounted to 71%; in data set [2], 84%. Also, in data set [3], the IC50 (usually the concentration needed to halve the response being measured) amounted to 110 nM.

As for `CC(=O)N1CCC(/C=C/c2nc3cc(-c4ccccc4C(F)(F)F)ccc3[nH]2)CC1`, the inhibition (in general, the change of the read-out against control, counted positive when it falls) in data set [4] turned out to be 1%. For the same molecule, the values for the remaining at 10 min in [5], in data set [1] and in [2] were 100%, 85% and 100%, respectively.

Turning to `FC(F)(F)c1ccccc1-c1ccc2[nH]c(/C=C/C3CCCCC3)nc2c1`, the result in the data set with Rattus norvegicus [6] and in the data set with Rattus norvegicus [7] was Active. Further, in the data set on Rattus norvegicus [8], the inhibition in vivo (commonly how much of the control response was suppressed) at 30 mg/kg worked out at 90%. The inhibition in vivo at 10 mg/kg in the data set with Rattus norvegicus [9] was 90%. Moreover, the ED50 (in general, the dose that gives a 50% effect, or the effect in half of the subjects) with Rattus norvegicus [10] came out at 6.4 mg/kg. The inhibition result with Rattus norvegicus [10] was “Dose-dependent effect”. In data set [11], the Tmax (commonly the time from dosing to the highest level) is 1.6 h. Also, in data set [12], the Vd was determined as 9.5 L/kg. Moreover, in [13], the Cmax (in general, the peak of the concentration-time curve) worked out at 225 ng/mL. Also, the half-life (as a rule, how long it takes for the measured level to halve) in data set [14] was 2.9 h. In addition, the clearance (commonly the volume of plasma or blood freed of the substance per unit of time) in data set [15] came out at 22 mL/min/kg. Besides, in data set [16], the bioavailability (usually the share of a dose that reaches the circulation, judged against a reference dose that is usually intravenous) is 14%. This molecule also gave an inhibition at 3.3 µM on CYP2C9 of 62%. Moreover, the IC50 on Cytochrome P450 2C19 [17] is > 30000 nM; against Cytochrome P450 3A4 [18] it was > 30000 nM; at Cytochrome P450 1A2, > 10000 nM; at Cytochrome P450 2D6 it was > 10000 nM; at Cytochrome P450 2C19 [19], > 10000 nM; on Cytochrome P450 2C9, 3500 nM. Besides, the IC50 at Cytochrome P450 3A4 [20] worked out at 3500 nM; in data set [21], 20 nM; in data set [22] it was 15 nM; in [3], 11 nM. Moreover, the remaining at 10 min in [5] is 20%; in data set [1] it was 58%; in data set [2], 85%. The Stability result in the data set on Liver microsomes is given as “Stable”.

For `C(=C\C1CCCCC1)/c1nc2cc(-c3ccccc3)ccc2[nH]1`, the half-maximal inhibitory concentration (IC50) in [3] was 110 nM.

As for `FC(F)(F)c1ccccc1-c1ccc2[nH]c(/C=C/C3CCNCC3)nc2c1`, the inhibition in data set [4] came out at 16%. Also, the remaining at 10 min in data set [5] stood at 98%; in [1], 86%; in data set [2], 99%.

As to `O=S1(=O)CCC(/C=C/c2nc3cc(-c4ccccc4C(F)(F)F)ccc3[nH]2)CC1`, the inhibition in data set [4] stood at 63%. The remaining at 10 min in [5] was 60%; in data set [1], 74%; in data set [2], 91%.

On to `FC(F)(F)c1ccccc1-c1ccc2[nH]c(/C=C/C3CCSCC3)nc2c1`, for which the remaining at 10 min is 8% in [5], 6% in data set [1] and 67% in data set [2].

Turning to `FC(F)(F)Oc1ccccc1-c1ccc2[nH]c(/C=C/C3CCCCC3)nc2c1`, the remaining at 10 min in data set [1] is 91%; in data set [2], 71%.

As to `FC1(F)CCC(/C=C/c2nc3cc(-c4ccccc4C(F)(F)F)ccc3[nH]2)CC1`, the remaining at 10 min in data set [5] turned out to be 39%; in [1], 100%; in [2], 47%. In data set [3], the IC50 came out at 21 nM.

For the molecule `CS(=O)(=O)N1CCC(/C=C/c2nc3cc(-c4ccccc4C(F)(F)F)ccc3[nH]2)CC1`, the inhibition in data set [4] was found to be 14%. Moreover, in [5], the remaining at 10 min turned out to be 75%.

Regarding `FC(F)(F)c1ccccc1-c1ccc2[nH]c(/C=C/C3CCOCC3)nc2c1`, the values for the remaining at 10 min in [5], in data set [1] and in data set [2] were 51%, 79% and 93%, respectively. In addition, the IC50 in [3] stood at 7.1 nM.

Take `Clc1ccccc1-c1ccc2[nH]c(/C=C/C3CCCCC3)nc2c1`: the figures for the remaining at 10 min in data set [1] and in data set [2] were 39% and 71%, respectively. Further, in data set [3], the IC50 turned out to be 8.9 nM.

As to `CC1(/C=C/c2nc3cc(-c4ccccc4C(F)(F)F)ccc3[nH]2)CCOCC1`, the remaining at 10 min in data set [5] worked out at 35%; in data set [1] it was 20%; in data set [2], 62%. Moreover, the IC50 in data set [3] amounted to 8.9 nM.

Turning to `FC(F)(F)c1cccnc1-c1ccc2[nH]c(/C=C/C3CCCCC3)nc2c1`, the values for the remaining at 10 min in data set [5], in [1] and in data set [2] were 42%, 72% and 90%, respectively. In addition, the IC50 in data set [3] turned out to be 38 nM.

Consider `Cc1ccccc1-c1ccc2[nH]c(/C=C/C3CCCCC3)nc2c1`, for which the values for the remaining at 10 min in [5], in data set [1] and in data set [2] were 13%, 15% and 77%, respectively. The IC50 in data set [3] amounted to 7.1 nM.

As to `COc1ccccc1-c1ccc2[nH]c(/C=C/C3CCCCC3)nc2c1`, the remaining at 10 min was 10% in data set [1] and 62% in data set [2]. Further, the IC50 in [3] came to 8.9 nM.

As for `CN1CCC(/C=C/c2nc3cc(-c4ccccc4C(F)(F)F)ccc3[nH]2)CC1`, the inhibition in data set [4] was 1%.

As for `CC1(/C=C/c2nc3cc(-c4ccccc4C(F)(F)F)ccc3[nH]2)CCC(F)(F)CC1`, the figures for the remaining at 10 min in [5], in data set [1] and in [2] were 28%, 84% and 97%, respectively. The IC50 in [3] stood at 8.9 nM.

Turning to `FC(F)(F)c1cccc(C(F)(F)F)c1-c1ccc2[nH]c(/C=C/C3CCCCC3)nc2c1`, the remaining at 10 min in data set [5] is 61%; in [1], 44%; in data set [2] it was 56%. Moreover, the IC50 in [3] stood at 12.3 nM.

Turning to `Fc1ccccc1-c1ccc2[nH]c(/C=C/C3CCCCC3)nc2c1`, the remaining at 10 min amounted to 75% in [5], 34% in data set [1] and 98% in [2]. Besides, the IC50 in data set [3] stood at 21 nM.

Regarding `Fc1cccc(C(F)(F)F)c1-c1ccc2[nH]c(/C=C/C3CCCCC3)nc2c1`, the remaining at 10 min in data set [5] is 42%; in data set [1], 66%; in [2] it was 67%. In addition, the IC50 in data set [3] came out at 8.6 nM.
